Results reported in US20090298077A1, “ASSAY FOR MEASUREMENT OF APURINIC/APYRIMIDINIC (AP) SITES AND FOR SCREENING AP-SITE REACTIVE COMPOUNDS” (priority 2006, published 2009).
Values joined by “and” are separate entries in the source; they are usually repeats but may differ in a detail not shown here. Equal values may be shown once.

Key:
Type in all cases: binding, calf
AP-DNA [1] = test: Competitive reactions between FARP and MX with AP-DNA; conditions: for Fluorescence Intensity/10^4: 125 nM AP-DNA
Description: (§1) 100 μL of 5 μM FARP in phosphate buffer (10 mM, pH 7.0) was added to 200 μL phosphate buffer (10 mM, pH 7.0) containing 10 μg of DNA extracted from cells, individual AP-DNA standard (10, 20, 40, 80, 160, 320, and 640 nM AP), and blank AP-DNA control, respectively. After vortexing, the reaction was allowed to proceed at room temperature for 15 min. At the end of the reaction 200 μL ammonium acetate (7.5M) and 1000 μL ice-cold ethanol (100%) were added. The solution was mixed gently by inverting the tube before keeping it at −20° C. for 30 min. Each tube was centrifuged at 4° C. and 12,000 g for 10 min. The supernatant was poured out carefully so that no loss of FARP-AP-DNA took place. 1200 μL of ice-cold ethanol (70%) was added to each tube to remove the free FARP by centrifugation at 4° C. and 12,000 g for 10 min. This washing step with 70% ice-cold ethanol was repeated two more times. After discarding the supernatant, the FARP-AP-DNA precipitate in the tube was dried at room temperature for 30 min. in a venting hood. The FARP-AP-DNA precipitate was hydrated and resuspended in 200 μL of phosphate buffer (10 mM, pH 9.0) at room temperature for 1 hr. The fluorescence intensity of the resultant FARP-AP-DNA solution was measured by the FluoroMax-2 spectrofluorometer. A calibration curve could be constructed by plotting the fluorescence intensity versus the concentration of AP sites.
Since aminooxy and hydrazone nucleophiles can react with aldehyde group of AP site and form condensation product, it is desirable to know when MX and FARP compete with AP-DNA, which compound has greater reactivity toward AP-DNA. The finding of this experiment will lay the foundation of a screening assay for MX-like compounds.
In the study, the amount of AP-DNA used were 125 nM in 200 μL of 10 mM phosphate buffer at pH 7.0 and the ratios of [FARP]/[MX] were as follows: 50 μM FARP/0 μM, 50.0 μM/5 μM, 50.0 μM/12.5 μM, 50.0 μM/16.7 μM, 50.0 μM/25.0 μM 50.0 μM/22.7 μM, 50.0 μM/25 μM, 50.0 μM/50.0 μM, 50.0 μM/100.0 μM, 50.0 μM/200.0 μM, 50.0 μM/500.0 μM in 100 μL of 10 mM phosphate buffer at pH 7.0. Because MX and FARP were competing for a limited amount of AP-DNA, and only FARP-AP-DNA was fluorescent, the reduced fluorescence intensity reflected the amount of MX binding to the AP sites. […] This is probably due to the molecular size of MX, which allows it to diffuse to faster to the AP-DNA than FARP molecule in aqueous solution.

AP-DNA [2] = test: FARP AP-site assay: screening of MX-like compounds in competition with FARP
Description: as §1
One important application of the FARP AP-site assay developed is to screen MX-like compounds for their reactivity to AP site based on known chemical structures. In this work, four compounds with aminooxy or hydrazone group (i.e., MXL1O1, MXLIO2, MXLI 03, and MXL 104) together with MX were tested. The detail experiment included mixing equal concentration and volume of each individual test compound with FARP (50 μM in 100 μL of 10 mM phosphate buffer at pH 7.0) before reacting with 200 µL of 100 nM AP-DNA. The remaining experimental procedures were the same as described in the Experimental section. The data of fluorescence intensity reduced by MX and MX-like compounds were given in Table XI and the fluorescence intensity of the test compounds were compared in FIG. 19.

AP-DNA [3] = test: Competitive reactions between FARP and MX with AP-DNA; conditions: [FARP]/[MX] 50.0 μM/20.0 μM, 125 nM AP-DNA
AP-DNA [4] = test: Reversibility study of the condensation reaction between FARP / MX and AP-DNA; conditions: for Fluorescence Intensity, FARP Reaction Followed MX Reaction: FARP-AP-DNA incubated with 50 μM MX; for Fluorescence Intensity, MX Replacement Followed by FARP Replacement: MX-AP-DNA incubated with 50 μM FARP
Description: It was known that the aldehyde group of an AP site could easily condense with aminooxy or hydrazone nucleophiles. However, the reversibility of the reaction was not clear, especially in the presence of another competing nucleophile. To clarify the above, two experiments were designed and carried out as follows: (a) FARP (50 μM in 100 μL of 10 mM phosphate buffer at pH 7.0) reacted with AP-DNA (125 nM in 200 μL of 10 mM phosphate buffer at pH 7.0) for 1 hr, after washing the condensation product (FARP-AP-DNA) incubated with MX (50 μM in 100 μL of 10 mM phosphate buffer at pH 7.0) for various time periods; and (b) MX (50 μM in 100 μL of 10 mM phosphate buffer at pH 7.0) reacted with AP-DNA (125 nM, 200 μL) for 1 hr, after washing the condensation product (MX-AP-DNA) incubated with FARP (50 μM in 100 μL of 10 mM phosphate buffer at pH 7.0) for various time periods.

[5] = test compound mixed with FARP at equal concentration and volume (50 μM in 100 μL, pH 7.0), 100 nM AP-DNA

## CON [MX, methoxyamine]
AP-DNA [1]; [FARP]/[MX] 50.0 μM/5.0 μM
  Fluorescence Intensity/10^4: 8.9453
AP-DNA [1]; [FARP]/[MX] 50.0 μM/12.5 μM
  Fluorescence Intensity/10^4: 8.3567
AP-DNA [1]; [FARP]/[MX] 50.0 μM/16.7 μM
  Fluorescence Intensity/10^4: 7.6453
AP-DNA [1]; [FARP]/[MX] 50.0 μM/22.7 μM
  Fluorescence Intensity/10^4: 3.8976
AP-DNA [1]; [FARP]/[MX] 50.0 μM/25.0 μM
  Fluorescence Intensity/10^4: 3.2452
AP-DNA [1]; [FARP]/[MX] 50.0 μM/50.0 μM
  Fluorescence Intensity/10^4: 2.587
AP-DNA [1]; [FARP]/[MX] 50.0 μM/100.0 μM
  Fluorescence Intensity/10^4: 2.348
AP-DNA [1]; [FARP]/[MX] 50.0 μM/200.0 μM
  Fluorescence Intensity/10^4: 2.2876
AP-DNA [1]; [FARP]/[MX] 50.0 μM/500.0 μM
  Fluorescence Intensity/10^4: 2.0896
AP-DNA [1]; result in words
  affinity toward AP-DNA compared with FARP: greater affinity toward APDNA than that of FARP
AP-DNA [2]; relative to FARP alone = 100, equal concentration of test compound and FARP, 100 nM AP-DNA
  Normalized Fluorescence Intensity %: 37.3%
AP-DNA [2]; result in words
  reactivity toward AP-DNA compared with FARP: higher reactivity than FARP
AP-DNA [2]; [5]
  Fluorescence Intensity Individual Measurement: 6543.0 and 6137.0
  Fluorescence Intensity Mean: 6340.0
AP-DNA [3]
  Fluorescence Intensity/10^4: 5.6423
AP-DNA [4]; replacement time 10 min
  Fluorescence Intensity, FARP Reaction Followed MX Reaction: 11,003
  Fluorescence Intensity, MX Replacement Followed by FARP Replacement: 3,366
AP-DNA [4]; replacement time 20 min
  Fluorescence Intensity, FARP Reaction Followed MX Reaction: 11,289
  Fluorescence Intensity, MX Replacement Followed by FARP Replacement: 3,225
AP-DNA [4]; replacement time 30 min
  Fluorescence Intensity, FARP Reaction Followed MX Reaction: 10,759
  Fluorescence Intensity, MX Replacement Followed by FARP Replacement: 3,557
AP-DNA [4]; replacement time 40 min
  Fluorescence Intensity, FARP Reaction Followed MX Reaction: 11,193
  Fluorescence Intensity, MX Replacement Followed by FARP Replacement: 3,410
AP-DNA [4]; replacement time 50 min
  Fluorescence Intensity, FARP Reaction Followed MX Reaction: 11,226
  Fluorescence Intensity, MX Replacement Followed by FARP Replacement: 3,321
AP-DNA [4]; replacement time 60 min
  Fluorescence Intensity, FARP Reaction Followed MX Reaction: 11,139
  Fluorescence Intensity, MX Replacement Followed by FARP Replacement: 3,192
AP-DNA [4]; replacement time 90 min
  Fluorescence Intensity, FARP Reaction Followed MX Reaction: 11,112
  Fluorescence Intensity, MX Replacement Followed by FARP Replacement: 3,202
AP-DNA [4]; replacement time 120 min
  Fluorescence Intensity, FARP Reaction Followed MX Reaction: 11,145
  Fluorescence Intensity, MX Replacement Followed by FARP Replacement: 3,081
AP-DNA [4]; result in words, under the assay conditions
  reversibility of the condensation reaction with aldehyde group of AP-DNA: irreversible
